Test results from patent US9675591B2, “Methods for treating seizure disorders and pain” (THE REGENTS OF THE UNIVERSITY OF CALIFORNIA, priority 2013, dated 2017).

Assays:
[1] = test system: pentylenetetrazole-induced seizures; test: Subcutaneous Metrazol seizure test (scMET); format: in vivo; details: mouse, in vivo
Procedure: A dose of subcutaneous pentylenetetrazole (Metrazole, MET) which induces convulsions in 97% of animals (CD97: 85 mg/kg mice or 56.4 mg/kg rats) was injected into a loose fold of skin at the neck. Animals were placed in isolation cages and observed for 30 min for the occurrence of clonic spasms persisting for at least 5 s.

[2] = test system: 6-Hz psychomotor seizures; test: 6-Hz psychomotor seizure test (ASP); format: in vivo, mice; details: Mus musculus, po, orally administered
Procedure: Seizures characterized by a minimal clonic phase followed by stereotyped automatistic behaviors (jaw chomping and whisker movement) were induced in mice by a low frequency (6 Hz), long-duration (3 s) stimulus. These seizures resemble automatistic behavior in patients with complex partial seizures. At varying times (0.25, 0.5, 1, 2, and 4 h) after drug treatment, individual mice (four at each time point) were challenged with sufficient current (32 or 44 mA at 6 Hz for 3 s) delivered through corneal electrodes to elicit a psychomotor seizure. Animals not displaying this behavior are considered protected.

[3] = test system: MES-induced seizures; test: MES seizure test, CF-1 mice, compounds given i.p. as solution; format: in vivo
Procedure: MES assays were performed at the Department of Neurology at the University of California with CF-1 mice. This study was approved by the University of California, Davis, Animal Use and Care Committee and conducted in accordance with the guidelines of Animal Use and Care of the National Institutes of Health and the University of California. For these assays, stock solutions of SKA-19 (5 mg/ml) were prepared in 5% CremophorEL (Sigma-Aldrich, St. Louis, Mo., USA) and 95% saline, diluted further with saline, and SKA-19 was administered i.p. in a volume of 10 ml/kg body weight. Animals were subjected to a 0.2-s, 60-Hz electrical stimulus through corneal electrodes (5 mm diameter stainless steel balls). The electroshock unit was adjusted to deliver a constant current of 50 mA. Immediately before stimulation, the corneal electrodes were wetted with saline to provide good electrical contact. Animals failing to show tonic hindlimb extension were scored as protected (Kokate et al., 1994).
The mouse maximal electroshock (MES) and 6 Hz seizure models were used. Motor toxicity was assessed using a modification of the horizontal screen test. ED50 values in the seizure models and TD50 values in the toxicity test were determined by nonlinear fitting of dose-response curves. […] Drugs solutions were injected intraperitoneally 10 min prior to administration of the electrical stimulus in a volume of 10 ml/kg body weight.

[4] = test system: MES-induced seizures; test: Maximal electroshock (MES) seizure test, rats (ASP, methylcellulose suspension); format: in vivo
Procedure: (§1) SKA-19 was tested under the auspices of the National Institutes of Health's Anticonvulsant Screening Program (ASP). Experiments were performed in male albino CF (Carworth Farms) No. 1 mice or Sprague-Dawley rats according to the established protocols of the ASP (White et al., 2002). SKA-19 was suspended in 0.5% methylcellulose and administered in a volume that permits accuracy of dosage without excessively contributing to total body fluid (0.01 ml/g body weight for mice and 0.04 ml/10 g body weight for rats).
(§2) Animals received an electrical stimulus of 0.2 s duration (50 mA in mice and 150 mA in rat at 60 Hz) delivered via corneal electrodes primed with an electrolyte solution containing 0.5% tetracaine. Animals were restrained by hand and released immediately after stimulation to permit observation of the seizure throughout its entire course. In the initial screens to identify anticonvulsant activity mice were tested at 30 minutes and 4 hours following doses of 3, 10, 30, 100 and 300 mg/kg of SKA-19 and rats tested at time intervals between 0.25 and 4 hours following a standard oral dose of 30 mg/kg. In the subsequent, more quantitative tests at least four doses of SKA-19 (n=8 per dose) were tested at the previously determined time of peak effect (TPE). Abolition of hindlimb tonic extension indicates the test compound's ability to inhibit MES-induced seizure spread. Tonic extension is considered abolished if the hind limbs are not fully extended at 180° with the body.

[5] = test system: MES-induced seizures; test: Maximal electroshock (MES) seizure test, mice (ASP, methylcellulose suspension); format: in vivo; details: Mus musculus, ip; mice, i.p., methylcellulose suspension, time of peak effect (SKA-19: 2 h); read-out: ED50, seizure protection in the MES test
Procedure: as §1, §2

[6] = test system: CA1 pyramidal neurons; test: Hippocampal slice recordings; format: cell-based, mouse; details: 10 μM, 1-s current injections (150 pA)
Procedure: Brain slice preparation was approved by the University of California, Irvine, Institutional Animal Care and Use Committee. Male C57BL/6 J mice (postnatal day 23) were anesthetized with halothane, decapitated, and brains transferred to an ice-cold, sucrose artificial cerebral spinal fluid (ACSF; Sigma-Aldrich). Hippocampal slices (300 μm) were prepared using a Leica VT1200S vibrating blade microtome (Leica Microsystems Inc., Buffalo Grove, Ill.). Slices were incubated at 33° C. in oxygenated (95% O2, 5% CO2) standard ACSF containing the following (mM) for at least 1 h before recordings: 126 NaCl, 2.5 KCl, 1.25 NaHPO4, 1.2 MgSO4, 10 glucose, 1.2 CaCl2, and 26 NaHCO3. Slices were submerged and continuously perfused at 2 ml/min with oxygenated ACSF at 33° C. during the current-clamp experiments. Voltage-clamp experiments were performed in the same ACSF but with 1 mM tetraethylammonium chloride (Sigma-Aldrich) and 0.5 μM tetrodotoxin (Sigma-Aldrich) added. Pyramidal CA1 neurons were visualized and identified with an upright microscope (Zeiss Axioskop Plus; Zeiss Jena, Germany) with infrared differential interference contrast optics. Recording pipettes (2-5 MΩ) were filled with intracellular solution containing (in mM): 126 K-gluconate; 4 KCl; 10 HEPES; 2 Mg-adenosine triphosphate; 0.3 Tris-guanosine triphosphate; 10 phosphocreatine, pH 7.20, 270-290 mOsm. In the current-clamp mode, depolarizing current pulses were applied from a membrane potential of −65 mV to evoke tonic firing activity. In the voltage-clamp mode, neurons were held at −55 mV and KCa currents elicited by 50-ms voltage steps to 10 mV, applied every 10 s. SKA-19 or NS309 were perfused for 10 min into the bath to allow for equilibrium. Recordings were performed in the whole-cell mode using a MultiClamp 700B amplifier (Molecular Devices), […] and sampled at 20 kHz with a Digidata 1322A digitizer (Molecular Devices). Data were acquired and analyzed with pClamp 10.2 software (Molecular Devices).

| Compound | activity in the scMET test [1] | ED50 ([2]; 32 mA, 0.5-h time point) | ED50 ([2]; 44 mA, 1-h time point) | duration of protection ([3]; 10 mg/kg i.p. as solution) | duration of protective activity ([3]; MES test, 10 mg/kg i.p. as solution) | ED50 ([3]; Mus musculus, ip, 10 min, i.p. as solution, 10 min time point, read-out: ED50, seizure protection in the MES test) | onset of protection from seizures after application ([3]; i.p. as solution) | protection from MES induced seizures, initial screen ([4]; 30 mg/kg i.p.) | ED50 ([4]; Rattus norvegicus, oral (SKA-19: 4 h time point), read-out: ED50, seizure protection in the MES test) | ED50 [5] | termination of firing during the ongoing current train [6] | effect on AP firing frequency ([6]; holding potential -65 mV) |
| --- | --- | --- | --- | --- | --- | --- | --- | --- | --- | --- | --- | --- |
| Nc1nc2ccc(OC(F)(F)F)cc2s1 [riluzole, 2-amino-6-(trifluoromethoxy)benzothiazole, reference compound] | no significant activity | 10.1 mg/kg | 11.5 mg/kg | ≤ 45 min | < 1 h | 5.37 mg/kg | ≤ 5 min | completely protected | 2.64 mg/kg | 4.07 mg/kg |  |  |
| NS309 [reference compound] |  |  |  |  |  |  |  |  |  |  | did not terminate firing | reduced AP firing frequency |
